In patent publication US20260193571A1, “AQUEOUS COMPOSITION CONTAINING CUCURBITURILS” (Clariant International Ltd, priority 2022, published 2026):
In brackets after ≈: the same amount, converted by molar mass.

Assays:
[1] = Increasing the solubility of cucurbiturils in water: appearance of aqueous compositions comprising cucurbiturils; format: physicochemical; details: 0.2 percent by weight cucurbituril sample, 25° C.
Procedure: Compositions consisting of the cucurbituril sample and water and compositions consisting of the cucurbituril sample, other substances but no solubilizing agents according to component Z2) of the inventive aqueous compositions, and water were prepared and used as comparative compositions.

[2] = in water at room temperature (25° C.); cited from earlier work
[3] = Malodor removing effect: headspace GC-MS measurement of odorants; details: headspace 60° C. 30 min, no agent/no cucurbiturils = 100
Procedure: An artificial malodor composition was prepared by mixing 10 mg of 2,3-butanedione, 5 mg of octanal, 30 mg of isovaleraldehyde, 300 mg of isovaleric acid and 50 mg of hexanal in 1 L of water.
The cucurbituril sample contains cucurbit[6]uril (50% by weight), cucurbit[7]uril (35% by weight) and cucurbit[8]uril (10% by weight).
Aqueous cucurbituril composition B: 0.5% by weight of the cucurbituril sample was mixed in water.
1 mL of aqueous cucurbituril composition A or B, 1 mL of malodor composition and 3 mL of water were mixed.
1 mL of 5% by weight of solubilizing agent in water, 1 mL of malodor composition and 3 mL of water were mixed.
4 mL of water and 1 mL of malodor composition were mixed.
The mixtures were prepared in headspace vials. The vials were then closed tightly and analyzed.
Analytical evaluation of malodor in the vials was conducted through a headspace measurement. A Gas Chromatograph Agilent 9000 Intuvo equipped with an autosampler Agilent 7697A equipped with a headspace extracting syringe, a Mass Detector Agilent MSD 5977B was used.
The headspace vials were equilibrated at 60° C. for 30 min at the autosampler before the measurement. A gas phase sample of 1000 μL was extracted from the vial and injected into the GC column. • Carrier gas: Helium 22.7 psi, split 5:1 • Column: DB-624 UI (length 60m, diameter 250 μm, size of film 1.4 μm) • Oven: Initial 40° C.—Hold time 2 mb—Rate 20° C./min—Temperature 260° C. —Hold time 5 min • Mass detector parameter: run in select ion mode. The peak area of each odorant was then integrated and recorded.

[4] = substance at 10 percent by weight in water
[5] = substance at 5 percent by weight in water
[6] = mixture contains cucurbiturils: 1 mL composition A (5% agent + 0.5% cucurbituril sample) or B (0.5% sample only) + 1 mL malodor composition + 3 mL water
[7] = mixture without cucurbiturils: 1 mL of 5% by weight solubilizing agent + 1 mL malodor composition + 3 mL water

Molecule: [Ca+2].[Cl-].[Cl-] [CaCl2]
- Appearance [1, 4]: very turbid

Molecule: CCO [Ethanol]
- Appearance [1, 4]: very turbid

Molecule: CC(O)CO (stereo not shown) [Propylene glycol]
- Appearance [1, 4]: very turbid

Molecule: O=C1N2CN3C(=O)N4CN5C(=O)N6CN7C(=O)N8CN9C(=O)N%10CN%11C(=O)N%12CN1C1C2N2CN%13C(=O)N(CN%14C(=O)N(CN%15C(=O)N(CN%16C(=O)N(CN%17C(=O)N(CN1C2=O)C%12C%11%17)C%10C9%16)C8C7%15)C6C5%14)C4C3%13 (stereo not shown) [cucurbit[6]uril]
- water solubility [2]: 18 µg/mL (≈ 18.1 µM)

Molecule: O=C1N2CN3C(=O)N4CN5C(=O)N6CN7C(=O)N8CN9C(=O)N%10CN%11C(=O)N%12CN%13C(=O)N%14CN%15C(=O)N%16CN1C1C2N2CN%17C(=O)N(CN%18C(=O)N(CN%19C(=O)N(CN%20C(=O)N(CN%21C(=O)N(CN%22C(=O)N(CN%23C(=O)N(CN1C2=O)C%16C%15%23)C%14C%13%22)C%12C%11%21)C%10C9%20)C8C7%19)C6C5%18)C4C3%17 (stereo not shown) [cucurbit[8]uril]
- water solubility [2]: 17 µg/mL (≈ 12.8 µM)

Molecule: Alkylbenzene sulfonate
- Appearance [1, 5]: very turbid

Molecule: C12/14 alkyl ethoxylate with 8 EO
- Appearance [1, 5]: very turbid

Molecule: Sodium laureth sulfate
- Appearance [1, 5]: very turbid

Molecule: lauramine oxide [Genaminox LA]
- Appearance [1, 5]: clear
- Relative peak area 2,3-butadione [3, 6]: 11
- Relative peak area hexanal [3, 6]: 9
- Relative peak area isovaleraldehyde [3, 6]: 6
- Relative peak area isovaleric acid [3, 6]: 3
- Relative peak area octanal [3, 6]: 73
- Relative peak area 2,3-butadione [3, 7]: 181
- Relative peak area hexanal [3, 7]: 203
- Relative peak area isovaleraldehyde [3, 7]: 182
- Relative peak area isovaleric acid [3, 7]: 10
- Relative peak area octanal [3, 7]: 134
